For the data set, the system named is adults with ADHD. The procedure:
In the clinical setting a number of adults with ADHD experienced a combination therapy of stimulant medication (dexamphetamine) in combination with sodium valproate (VPA). The initial dosages used were from 15 to 70 mg/day of dexamphetamine and from 100 to 700 mg/day of VPA (Epilim) (=approximately 2 to 10 mg/kg/day).
The determination of the dose for the dexamphetamine was undertaken in a clinical sensitive open label manner. The dose was titrated upwards dependent on the clinical response and the freedom from side-effects. The dose range was between 15 and 70 mg a day. The frequency of the dosing also varied dependent upon the clinical response. The usual dose interval was between two to four hours. This dosing adjustment took place prior to the commencement of the sodium valproate. The sodium valproate medication was initiated once a day at 50 mg tablet or elixir and titrated upwards dependent on response, but not more than one increase every three days. The dose was given as a once or twice a day regime. During the titration phase, if clinically possible, no other adjustments to the pharmacotherapy were undertaken.

Like-named read-outs stand apart in the source and are kept apart here.

For the compound `CCCC(CCC)C(=O)O.[Na]` [sodium valproate, sodium di-n-propylacetic acid], the “clinical outcome (case)” value is, setting by setting: (adult female, sodium valproate maximum 150 mg added to methylphenidate) “Improvement”; (person, ADHD, anorexia nervosa, borderline personality disorder, sodium valproate 200 mg with dexamphetamine) “responded”; (person, ADHD, low dose sodium valproate 50 mg added to psycho stimulant) “improvement in their egocentric gaze and improved cognition”; (person, ADHD, sodium valproate 100 mg a day added to dexamphetamine 40 mg) “improvement with more organised thoughts”; (person, 100 mg sodium valproate added to methylphenidate 55 mg) “enhanced ability to maintain conversation, improved cognition, improved assertiveness and self organisation”; (person, sodium valproate (up to 500 mg a day) added to dexamphetamine 20 mg) “Further benefit”. Further, the “clinical outcome (case)” value reads like this: (person, sodium valproate maximum 400 mg added to dexamphetamine) “good effect”; (person, valproate dose reached 150 mg, with psycho stimulant) “benefits were lost”. Besides, the “group outcome of combination therapy” value (adults with ADHD, Methylphenidate 40 mg/d, Valproate 100 mg/d, Phenytoin 50 mg/d) is on record as “successfully treated”; the “group outcome of combination therapy” value (adults with ADHD, dexamphetamine 20-45 mg/d, Valproate 100-400 mg/d, Phenytoin 12.5-50 mg/d) was “successfully treated”; the “group outcome of combination therapy” value (adults with ADHD, median 40 mg/d Dexamphetamine, 120 mg/d Sodium Valproate, 25 mg/d Topiramate) was “successfully treated”; the “group outcome of combination therapy” value (adults with ADHD, methylphenidate 30-125 mg/d with Valproate 50-200 mg/d) is given as “successfully treated”. Besides, the “clinical assessment under combination therapy” value (adults with ADHD, Valproate 50-300 mg/d with Dexamphetamine 20-75 mg/d) is given as “overall improvement in psychosocial functioning”. Besides, the “effect of higher doses” value (human, in vivo) is “general cognitive slowing and the resultant loss of efficacy”. The “self-described improvement in ability to study” value (person, ADHD, sodium valproate (50 mg) added to psycho stimulant) amounted to 50%.

The values are drawn from patent US10028971B2, “Compositions and methods for treating psychiatric disorders” (GOSFORTH CENTRE (HOLDINGS) PTY LTD., priority 2008, dated 2018).
